From patent US20250230193A1, “CYCLIC COMPOUND HAVING SELECTIVE KRAS INHIBITORY EFFECT ON HRAS AND NRAS” (CHUGAI SEIYAKU KABUSHIKI KAISHA, priority 2022, published 2025)

How the values were obtained:
[1] = target: GDP-bound HRAS wild-type protein (Homo sapiens, UniProt P01112); assay: Binding to HRAS by surface plasmon resonance (SPR), Single Cycle Kinetics; settings: KD ratio HRAS/KRAS, SPR, GDP-bound wild-type proteins
[2] = target: GDP-bound NRAS wild-type protein (Homo sapiens, UniProt P01111); assay: Binding to NRAS by surface plasmon resonance (SPR), Single Cycle Kinetics; settings: KD ratio NRAS/KRAS, SPR, GDP-bound wild-type proteins
GDP-bound NRAS wild-type protein, sequence (P01111 whole entry): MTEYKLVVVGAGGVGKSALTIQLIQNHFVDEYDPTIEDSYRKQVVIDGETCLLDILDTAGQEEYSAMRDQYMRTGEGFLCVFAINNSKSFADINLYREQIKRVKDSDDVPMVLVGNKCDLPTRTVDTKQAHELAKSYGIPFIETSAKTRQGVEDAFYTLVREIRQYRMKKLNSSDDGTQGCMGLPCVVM

GDP-bound HRAS wild-type protein, sequence (P01112 whole entry): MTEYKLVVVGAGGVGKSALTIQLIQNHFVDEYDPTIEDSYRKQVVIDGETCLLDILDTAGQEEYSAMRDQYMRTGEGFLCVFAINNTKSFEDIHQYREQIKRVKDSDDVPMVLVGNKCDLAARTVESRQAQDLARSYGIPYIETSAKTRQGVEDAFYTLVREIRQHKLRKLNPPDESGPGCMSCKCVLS

CC[C@H](C)[C@@H]1NC(=O)[C@@H]2CCCCCc3ccc(cc3)C[C@@H](C(=O)N(C)CC(=O)N[C@@H](CCc3ccc(C(F)(F)F)c(OC)c3)C(=O)N3C[C@H](OC(C)C)C[C@H]3C(=O)NC3(CC(C)(C)C3)C(=O)N(C)[C@@H](C3CCCC3)C(=O)N(C)[C@H](C(=O)N(C)C)CC(=O)N2C)N2CC/C=C\C[C@@H](C2=O)N(C)C(=O)CN(C)C1=O [PP3072]
HRAS/KRAS (ratio of KD value with respect to GDP-bound HRAS wild-type protein to KD value with respect to KRAS) [1]: B (a compound having 3 or more and less than 10 is denoted as B)
NRAS/KRAS (ratio of KD value with respect to GDP-bound NRAS wild-type protein to KD value with respect to KRAS) [2]: A (a compound having 10 or more and less than 20 is denoted as A)

CC[C@H](C)[C@@H]1NC(=O)[C@@H]2CCCCCc3ccc(cc3)C[C@@H](C(=O)N(C)CC(=O)N[C@@H](CCc3ccc(C(F)(F)F)c(OC)c3)C(=O)N3C[C@H](OC4CCC4)C[C@H]3C(=O)NC3(CC(C)(C)C3)C(=O)N(C)[C@@H](C3CCCC3)C(=O)N(C)[C@H](C(=O)N(C)C)CC(=O)N2C)N2CC/C=C\C[C@@H](C2=O)N(C)C(=O)CN(C)C1=O [PP3073]
HRAS/KRAS (ratio of KD value with respect to GDP-bound HRAS wild-type protein to KD value with respect to KRAS) [1]: A (a compound having 10 or more and less than 20 is denoted as A)
NRAS/KRAS (ratio of KD value with respect to GDP-bound NRAS wild-type protein to KD value with respect to KRAS) [2]: A (a compound having 10 or more and less than 20 is denoted as A)

CC[C@H](C)[C@@H]1NC(=O)[C@@H]2CCCCCc3ccc(cc3)C[C@@H](C(=O)N(C)CC(=O)N[C@@H](CCc3ccc(C(F)(F)F)c(OC)c3)C(=O)N3CC4(CC4)C[C@H]3C(=O)NC3(CC(C)(C)C3)C(=O)N(C)[C@@H](C3CCCC3)C(=O)N(C)[C@H](C(=O)N(C)C)CC(=O)N2C)N2CC/C=C\C[C@@H](C2=O)N(C)C(=O)CN(C)C1=O [PP3074]
HRAS/KRAS (ratio of KD value with respect to GDP-bound HRAS wild-type protein to KD value with respect to KRAS) [1]: A (a compound having 10 or more and less than 20 is denoted as A)
NRAS/KRAS (ratio of KD value with respect to GDP-bound NRAS wild-type protein to KD value with respect to KRAS) [2]: A (a compound having 10 or more and less than 20 is denoted as A)

CCO[C@@H]1C[C@H]2C(=O)NC3(CC(C)(C)C3)C(=O)N(C)[C@@H](C3CCCC3)C(=O)N(C)[C@H](C(=O)N(C)C)CC(=O)N(C)[C@H]3CCCCCc4ccc(cc4)C[C@@H](C(=O)N(C)CC(=O)N[C@@H](CCc4ccc(C(F)(F)F)c(OC)c4)C(=O)N2C1)N1CC/C=C\C[C@@H](C1=O)N(C)C(=O)CN(C1CC1)C(=O)[C@H]([C@@H](C)CC)NC3=O [PP3075]
HRAS/KRAS (ratio of KD value with respect to GDP-bound HRAS wild-type protein to KD value with respect to KRAS) [1]: A (a compound having 10 or more and less than 20 is denoted as A)
NRAS/KRAS (ratio of KD value with respect to GDP-bound NRAS wild-type protein to KD value with respect to KRAS) [2]: A (a compound having 10 or more and less than 20 is denoted as A)

CCO[C@@H]1C[C@H]2C(=O)NC3(CC(C)(C)C3)C(=O)N(C)[C@@H](C3CCCC3)C(=O)N(C)[C@H](C(=O)N(C)C)CC(=O)N(C)[C@H]3CCCCCc4ccc(cc4)C[C@@H](C(=O)N(C)CC(=O)N[C@@H](CCc4ccc(Cl)c(Cl)c4)C(=O)N2C1)N1CC/C=C\C[C@@H](C1=O)N(C)C(=O)CN(C)C(=O)[C@H]([C@@H](C)CC)NC3=O [PP3076]
HRAS/KRAS (ratio of KD value with respect to GDP-bound HRAS wild-type protein to KD value with respect to KRAS) [1]: A (a compound having 10 or more and less than 20 is denoted as A)
NRAS/KRAS (ratio of KD value with respect to GDP-bound NRAS wild-type protein to KD value with respect to KRAS) [2]: AA (a compound having 20 or more is denoted as AA)

CCCO[C@@H]1C[C@H]2C(=O)NC3(CC(C)(C)C3)C(=O)N(C)[C@@H](C3CCCC3)C(=O)N(C)[C@H](C(=O)N(C)C)CC(=O)N(C)[C@H]3CCCCc4ccc(cc4)C[C@@H](C(=O)N(C)CC(=O)N[C@@H](CCc4ccc(C(F)(F)F)c(OC)c4)C(=O)N2C1)N1CC/C=C\C[C@@H](C1=O)N(C)C(=O)CN(C)C(=O)[C@H]([C@@H](C)CC)NC3=O [PP3077]
HRAS/KRAS (ratio of KD value with respect to GDP-bound HRAS wild-type protein to KD value with respect to KRAS) [1]: B (a compound having 3 or more and less than 10 is denoted as B)
NRAS/KRAS (ratio of KD value with respect to GDP-bound NRAS wild-type protein to KD value with respect to KRAS) [2]: A (a compound having 10 or more and less than 20 is denoted as A)

CC[C@H](C)[C@@H]1NC(=O)[C@@H]2CCCCc3ccc(cc3)C[C@@H](C(=O)N(C)CC(=O)N[C@@H](CCc3ccc(C(F)(F)F)c(OC)c3)C(=O)N3C[C@H](OC(C)C)C[C@H]3C(=O)NC3(CC(C)(C)C3)C(=O)N(C)[C@@H](C3CCCC3)C(=O)N(C)[C@H](C(=O)N(C)CC)CC(=O)N2C)N2CC/C=C\C[C@@H](C2=O)N(C)C(=O)CN(C)C1=O [PP3078]
HRAS/KRAS (ratio of KD value with respect to GDP-bound HRAS wild-type protein to KD value with respect to KRAS) [1]: B (a compound having 3 or more and less than 10 is denoted as B)
NRAS/KRAS (ratio of KD value with respect to GDP-bound NRAS wild-type protein to KD value with respect to KRAS) [2]: A (a compound having 10 or more and less than 20 is denoted as A)

CC[C@H](C)[C@@H]1NC(=O)[C@@H]2CCCCc3ccc(cc3)C[C@@H](C(=O)N(C)CC(=O)N[C@@H](CCc3ccc(C(F)(F)F)c(OC)c3)C(=O)N3C[C@H](OC4CCC4)C[C@H]3C(=O)NC3(CC(C)(C)C3)C(=O)N(C)[C@@H](C3CCCC3)C(=O)N(C)[C@H](C(=O)N(C)CC)CC(=O)N2C)N2CC/C=C\C[C@@H](C2=O)N(C)C(=O)CN(C)C1=O [PP3079]
HRAS/KRAS (ratio of KD value with respect to GDP-bound HRAS wild-type protein to KD value with respect to KRAS) [1]: B (a compound having 3 or more and less than 10 is denoted as B)
NRAS/KRAS (ratio of KD value with respect to GDP-bound NRAS wild-type protein to KD value with respect to KRAS) [2]: A (a compound having 10 or more and less than 20 is denoted as A)

CC[C@H](C)[C@@H]1NC(=O)[C@@H]2CCCCc3ccc(cc3)C[C@@H](C(=O)N(C)CC(=O)N[C@@H](CCc3ccc(C(F)(F)F)c(OC)c3)C(=O)N3C[C@H](OC4CCCC4)C[C@H]3C(=O)NC3(CC(C)(C)C3)C(=O)N(C)[C@@H](C3CCCC3)C(=O)N(C)[C@H](C(=O)N(C)C)CC(=O)N2C)N2CC/C=C\C[C@@H](C2=O)N(C)C(=O)CN(C)C1=O [PP3080]
HRAS/KRAS (ratio of KD value with respect to GDP-bound HRAS wild-type protein to KD value with respect to KRAS) [1]: B (a compound having 3 or more and less than 10 is denoted as B)
NRAS/KRAS (ratio of KD value with respect to GDP-bound NRAS wild-type protein to KD value with respect to KRAS) [2]: A (a compound having 10 or more and less than 20 is denoted as A)

CC[C@H](C)[C@@H]1NC(=O)[C@@H]2CCCCc3ccc(cc3)C[C@@H](C(=O)N(C)CC(=O)N[C@@H](CCc3ccc(C(F)(F)F)c(OC)c3)C(=O)N3CC4(CC4)C[C@H]3C(=O)NC3(CC(C)(C)C3)C(=O)N(C)[C@@H](C3CCCC3)C(=O)N(C)[C@H](C(=O)N(C)CC)CC(=O)N2C)N2CC/C=C\C[C@@H](C2=O)N(C)C(=O)CN(C)C1=O [PP3081]
HRAS/KRAS (ratio of KD value with respect to GDP-bound HRAS wild-type protein to KD value with respect to KRAS) [1]: B (a compound having 3 or more and less than 10 is denoted as B)
NRAS/KRAS (ratio of KD value with respect to GDP-bound NRAS wild-type protein to KD value with respect to KRAS) [2]: A (a compound having 10 or more and less than 20 is denoted as A)

CCCO[C@@H]1C[C@H]2C(=O)NC3(CC(C)(C)C3)C(=O)N(C)[C@@H](C3CCCC3)C(=O)N(C)[C@H](C(=O)N(C)C)CC(=O)N(C)[C@H]3CCCCc4ccc(cc4)C[C@@H](C(=O)N(C)CC(=O)N[C@@H](CCc4ccc(C(F)(F)F)c(OC)c4)C(=O)N2C1)N1CC/C=C\C[C@@H](C1=O)N(C)C(=O)CN(C1CC1)C(=O)[C@H]([C@@H](C)CC)NC3=O [PP3082]
HRAS/KRAS (ratio of KD value with respect to GDP-bound HRAS wild-type protein to KD value with respect to KRAS) [1]: B (a compound having 3 or more and less than 10 is denoted as B)
NRAS/KRAS (ratio of KD value with respect to GDP-bound NRAS wild-type protein to KD value with respect to KRAS) [2]: B (a compound having 3 or more and less than 10 is denoted as B)

CCCO[C@@H]1C[C@H]2C(=O)NC3(CC(C)(C)C3)C(=O)N(C)[C@@H](C3CCCC3)C(=O)N(C)[C@H](C(=O)N(C)CC)CC(=O)N(C)[C@H]3CCCc4ccc(cc4)C[C@@H](C(=O)N(C)CC(=O)N[C@@H](CCc4ccc(C(F)(F)F)c(OC)c4)C(=O)N2C1)N1CC/C=C\C[C@@H](C1=O)N(C)C(=O)CN(C)C(=O)[C@H]([C@@H](C)CC)NC3=O [PP3083]
HRAS/KRAS (ratio of KD value with respect to GDP-bound HRAS wild-type protein to KD value with respect to KRAS) [1]: A (a compound having 10 or more and less than 20 is denoted as A)
NRAS/KRAS (ratio of KD value with respect to GDP-bound NRAS wild-type protein to KD value with respect to KRAS) [2]: A (a compound having 10 or more and less than 20 is denoted as A)

CC[C@H](C)[C@@H]1NC(=O)[C@@H]2CCCc3ccc(cc3)C[C@@H](C(=O)N(C)CC(=O)N[C@@H](CCc3ccc(C(F)(F)F)c(OC)c3)C(=O)N3C[C@H](OC(C)C)C[C@H]3C(=O)NC3(CC(C)(C)C3)C(=O)N(C)[C@@H](C3CCCC3)C(=O)N(C)[C@H](C(=O)N(C)CC)CC(=O)N2C)N2CC/C=C\C[C@@H](C2=O)N(C)C(=O)CN(C)C1=O [PP3084]
HRAS/KRAS (ratio of KD value with respect to GDP-bound HRAS wild-type protein to KD value with respect to KRAS) [1]: B (a compound having 3 or more and less than 10 is denoted as B)
NRAS/KRAS (ratio of KD value with respect to GDP-bound NRAS wild-type protein to KD value with respect to KRAS) [2]: A (a compound having 10 or more and less than 20 is denoted as A)

CC[C@H](C)[C@@H]1NC(=O)[C@@H]2CCCc3ccc(cc3)C[C@@H](C(=O)N(C)CC(=O)N[C@@H](CCc3ccc(C(F)(F)F)c(OC)c3)C(=O)N3C[C@H](OC4CCC4)C[C@H]3C(=O)NC3(CC(C)(C)C3)C(=O)N(C)[C@@H](C3CCCC3)C(=O)N(C)[C@H](C(=O)N(C)CC)CC(=O)N2C)N2CC/C=C\C[C@@H](C2=O)N(C)C(=O)CN(C)C1=O [PP3085]
HRAS/KRAS (ratio of KD value with respect to GDP-bound HRAS wild-type protein to KD value with respect to KRAS) [1]: B (a compound having 3 or more and less than 10 is denoted as B)
NRAS/KRAS (ratio of KD value with respect to GDP-bound NRAS wild-type protein to KD value with respect to KRAS) [2]: A (a compound having 10 or more and less than 20 is denoted as A)

CC[C@H](C)[C@@H]1NC(=O)[C@@H]2CCCc3ccc(cc3)C[C@@H](C(=O)N(C)CC(=O)N[C@@H](CCc3ccc(C(F)(F)F)c(OC)c3)C(=O)N3C[C@H](OC4CCCC4)C[C@H]3C(=O)NC3(CC(C)(C)C3)C(=O)N(C)[C@@H](C3CCCC3)C(=O)N(C)[C@H](C(=O)N(C)CC)CC(=O)N2C)N2CC/C=C\C[C@@H](C2=O)N(C)C(=O)CN(C)C1=O [PP3086]
HRAS/KRAS (ratio of KD value with respect to GDP-bound HRAS wild-type protein to KD value with respect to KRAS) [1]: B (a compound having 3 or more and less than 10 is denoted as B)
NRAS/KRAS (ratio of KD value with respect to GDP-bound NRAS wild-type protein to KD value with respect to KRAS) [2]: B (a compound having 3 or more and less than 10 is denoted as B)

CC[C@H](C)[C@@H]1NC(=O)[C@@H]2CCCc3ccc(cc3)C[C@@H](C(=O)N(C)CC(=O)N[C@@H](CCc3ccc(C(F)(F)F)c(OC)c3)C(=O)N3CC4(CC4)C[C@H]3C(=O)NC3(CC(C)(C)C3)C(=O)N(C)[C@@H](C3CCCC3)C(=O)N(C)[C@H](C(=O)N(C)CC)CC(=O)N2C)N2CC/C=C\C[C@@H](C2=O)N(C)C(=O)CN(C)C1=O [PP3087]
HRAS/KRAS (ratio of KD value with respect to GDP-bound HRAS wild-type protein to KD value with respect to KRAS) [1]: B (a compound having 3 or more and less than 10 is denoted as B)
NRAS/KRAS (ratio of KD value with respect to GDP-bound NRAS wild-type protein to KD value with respect to KRAS) [2]: A (a compound having 10 or more and less than 20 is denoted as A)
